Test results published in paper PMC11677527, “Predicting Pharmacokinetics of Active Constituents in Spatholobi caulis by Using Physiologically Based Pharmacokinetic Models” (Pharmaceuticals, 2024).
Where two headings read alike, the source gives them in different places.

Assays:
Caco-2 cell monolayer = system: Caco-2 cell monolayer; set-up: method as in PMID 36680806, PMID 26501241; conditions: Caco-2 cell monolayer model; cited from earlier work
[1] = Verification pharmacokinetic experiment in rats, SPC 60 g crude drug/kg by gavage, UFLC-MS/MS, DAS 2.0; assay type: in vivo, rat
Protocol: To validate the accuracy of PBPK models in predicting the pharmacokinetics of SPC constituents at different oral doses, the pharmacokinetic behavior of these four constituents from SPC in rats were analyzed by UFLC-MS/MS. The parameters were calculated using Drug and Statistics Software version 2.0, and then these validated values (Val.) were used to check the accuracy of the Calc. values and evaluated by FE.
The pharmacokinetic fitting results of rats given 60 g crude drug/kg body weight of SPC by gavage were verified by experiments. The verification experiment was conducted according to our previous pharmacokinetic study. In brief, 1.5 mL suspension of SPC was given to rats by oral administration; 300 μL blood samples from orbital venous at 0.083, 0.25, 0.5, 0.75, 1.0, 1.5, 2, 3, 4, 6, 8, and 12 h were collected and pretreated with heparin sodium. After centrifugation, the plasma samples were obtained and further processed for subsequent detection by UFLC-MS/MS; the detailed analysis method is shown in Supplementary Data (Table S1 and Figure S1). The concentration-time curve of each compound was gained, and the pharmacokinetic parameters were calculated using DAS 2.0 software (DAS 2.0, Mathematical Pharmacology Professional Committee of China, Shanghai, China). The results of these four constituents were compared with the PBPK parameters predicted in rats at an oral dose of 60 g crude drug/kg body weight of SPC.
1. The instrument and analytical conditions of UFLC-MS/MS method
4 constituents (1. 3′-methoxydadizein; 2. 8-O-methylretusin; 3. Daidzin; and 4. […]
The internal standard (IS) carbamazepine with a purity of more than 99 % was purchased from Beijing JK-chemical technology Co. Ltd., (Beijing China). Heparin sodium was gained from Tianjin biochemical pharmaceutical Co. Ltd, (Tianjin, China).
Ammonium acetate of HPLC grade, methanol and acetonitrile of LC-MS grade were purchased from Sigma (LOT# BCBK6717V, sigma-aldrich, Co., MO, USA) and Fisher (Fisher Corp., Fair lawn, NJ, USA) respectively. The experimental ultrapure water was prepared by Millipore Milli-Q ultrapure water preparation apparatus (Millipore Sigma, […]
The detailed information of Shimadzu UFLC-MS/MS 8050 liquid mass system equipped with Nexera X2UFLC liquid chromatography system and 8050 triple quadrupole mass spectrometers with an electrospray ionization source were listed in our previous study. The supporting LabSolution workstation was used for data […]
The separation without superposition of analytes in plasma sample was achieved on a Kinetex® C18 chromatographic column (100mm×2.1mm i.d.; 2.6 μm, 100 Å; Phenomenex, Inc., Torrance, CA, USA) assembled with a Phenomenex p/n AJ0-9000 C18 protection column. The mobile phase was consisted of 0.5 mM ammonium acetate in water (A) and ACN (B). The gradient elution program was selected ultimately as […]
95 % B (18.7–22 min). Column and automatic sampler temperature were set as 30 °C and 4 °C respectively. The flow rate of mobile phase was 0.35 mL/min while sample injection volume was 4 μL.
Multiple reaction monitoring (MRM) of positive or negative modes were used as scanning modes for the analytes and IS. Other essential parameters were successively optimized as: Nebulizing gas flow, 3 L/min; Heating gas flow, 10 L/min; Drying gas flow, 10 L/min; Interface temperature, 300 °C; DL temperature, 250 °C; Interface and detector voltage were each set as 3.0 kV and 1.8 kV. The detection parameters such as retention time (RT), dwell time (DT), quadrupole 1 pre-rod bias (Q1), collision energy […]
Table S1 The retention time and ion equivalent parameters of 4 constituents in rat […]
Constituents Retention Precursor Precursor Product time Pre energy Pre time (min) ion species ion ion (msec) Bias (V) Bias

[2] = set-up: method as in PMID 34303214; conditions: rats, p.o. SPC 30 g crude drug/kg; doses of 1-4: 0.062, 0.11, 0.71, 1.31 mg/kg; cited from earlier work
[3] = Observed pharmacokinetics in rats after oral SPC (previous study); assay type: in vivo, rat; conditions: p.o. SPC
[4] = compartment model parameters, DAS 2.0, rats p.o. SPC 60 g crude drug/kg, Mean, 5 rats
[5] = statistical moment parameters, DAS 2.0, rats p.o. SPC 60 g crude drug/kg, Mean, 5 rats
[6] = statistical moment parameters, DAS 2.0, rats p.o. SPC 60 g crude drug/kg, Mean, 5 rats, in µg·h²/mL

- K10 [1, 4]: 0.474 h⁻¹
- K12 [1, 4]: 0.207 h⁻¹
- K21 [1, 4]: 0.135 h⁻¹
- Ka [1, 4]: 4.239 h⁻¹
- Tlag [1, 4]: 0 h
- V1/F [1, 4]: 12.821 L/kg
- t1/2Ka [1, 4]: 0.185 h
- t1/2α [1, 4]: 1.009 h
- concentration at 0.083 h ([1]; rat, plasma, oral, time 0.083 h, rats p.o. SPC 60 g crude drug/kg, doses of 1-4: 0.124, 0.22, 1.4, 2.62 mg/kg, 5 rats): 2.98 ng/mL
- concentration at 0.25 h ([1]; rat, plasma, oral, time 0.25 h, rats p.o. SPC 60 g crude drug/kg, doses of 1-4: 0.124, 0.22, 1.4, 2.62 mg/kg, 5 rats): 5.52 ng/mL
- concentration at 0.5 h ([1]; rat, plasma, oral, time 0.5 h, rats p.o. SPC 60 g crude drug/kg, doses of 1-4: 0.124, 0.22, 1.4, 2.62 mg/kg, 5 rats): 7.09 ng/mL
- concentration at 0.75 h ([1]; rat, plasma, oral, time 0.75 h, rats p.o. SPC 60 g crude drug/kg, doses of 1-4: 0.124, 0.22, 1.4, 2.62 mg/kg, 5 rats): 6.16 ng/mL
- concentration at 1 h ([1]; rat, plasma, oral, time 1 h, rats p.o. SPC 60 g crude drug/kg, doses of 1-4: 0.124, 0.22, 1.4, 2.62 mg/kg, 5 rats): 5.77 ng/mL
- concentration at 1.5 h ([1]; rat, plasma, oral, time 1.5 h, rats p.o. SPC 60 g crude drug/kg, doses of 1-4: 0.124, 0.22, 1.4, 2.62 mg/kg, 5 rats): 5.11 ng/mL
- concentration at 2 h ([1]; rat, plasma, oral, time 2 h, rats p.o. SPC 60 g crude drug/kg, doses of 1-4: 0.124, 0.22, 1.4, 2.62 mg/kg, 5 rats): 2.89 ng/mL
- concentration at 3 h ([1]; rat, plasma, oral, time 3 h, rats p.o. SPC 60 g crude drug/kg, doses of 1-4: 0.124, 0.22, 1.4, 2.62 mg/kg, 5 rats): 1.75 ng/mL
- concentration at 4 h ([1]; rat, plasma, oral, time 4 h, rats p.o. SPC 60 g crude drug/kg, doses of 1-4: 0.124, 0.22, 1.4, 2.62 mg/kg, 5 rats): 1.46 ng/mL
- concentration at 6 h ([1]; rat, plasma, oral, time 6 h, rats p.o. SPC 60 g crude drug/kg, doses of 1-4: 0.124, 0.22, 1.4, 2.62 mg/kg, 5 rats): 0.553 ng/mL
- concentration at 8 h ([1]; rat, plasma, oral, time 8 h, rats p.o. SPC 60 g crude drug/kg, doses of 1-4: 0.124, 0.22, 1.4, 2.62 mg/kg, 5 rats): 0.582 ng/mL
- concentration at 12 h ([1]; rat, plasma, oral, time 12 h, rats p.o. SPC 60 g crude drug/kg, doses of 1-4: 0.124, 0.22, 1.4, 2.62 mg/kg, 5 rats): 0.197 ng/mL
- AUC(0-t) ([1]; rat, plasma, po, 0.124 mg/kg, compartment model parameters, DAS 2.0, rats p.o. SPC 60 g crude drug/kg, Mean, 5 rats, read-out: AUC(0-t)): 19.1 ng·h/mL
- AUC(0-inf) ([1]; rat, plasma, po, 0.124 mg/kg, compartment model parameters, DAS 2.0, rats p.o. SPC 60 g crude drug/kg, Mean, 5 rats, read-out: AUC(0-∞)): 20.5 ng·h/mL
- CL/F ([1]; rat, plasma, po, 0.124 mg/kg, compartment model parameters, DAS 2.0, rats p.o. SPC 60 g crude drug/kg, Mean, 5 rats, read-out: CL/F (converted)): 101 mL/min/kg
- half-life ([1]; rat, plasma, po, 0.124 mg/kg, compartment model parameters, DAS 2.0, rats p.o. SPC 60 g crude drug/kg, Mean, 5 rats, read-out: t1/2β (converted)): 14.4 h
- AUC(0-t) ([1]; rat, plasma, po, 0.124 mg/kg, statistical moment parameters, DAS 2.0, rats p.o. SPC 60 g crude drug/kg, Mean, 5 rats, read-out: AUC(0-t)): 19.1 ng·h/mL
- AUC(0-inf) ([1]; rat, plasma, po, 0.124 mg/kg, statistical moment parameters, DAS 2.0, rats p.o. SPC 60 g crude drug/kg, Mean, 5 rats, read-out: AUC(0-∞)): 20 ng·h/mL
- CL/F ([1]; rat, plasma, po, 0.124 mg/kg, statistical moment parameters, DAS 2.0, rats p.o. SPC 60 g crude drug/kg, Mean, 5 rats, read-out: CLz/F (converted)): 103 mL/min/kg
- Cmax ([1]; rat, plasma, po, 0.124 mg/kg, statistical moment parameters, DAS 2.0, rats p.o. SPC 60 g crude drug/kg, Mean, 5 rats, read-out: Cmax): 7.18 ng/mL
- MRT last ([1]; rat, plasma, po, 0.124 mg/kg, statistical moment parameters, DAS 2.0, rats p.o. SPC 60 g crude drug/kg, Mean, 5 rats, read-out: MRT(0-t)): 2.77 h
- MRT inf ([1]; rat, plasma, po, 0.124 mg/kg, statistical moment parameters, DAS 2.0, rats p.o. SPC 60 g crude drug/kg, Mean, 5 rats, read-out: MRT(0-∞)): 3.44 h
- Tmax ([1]; rat, plasma, po, 0.124 mg/kg, statistical moment parameters, DAS 2.0, rats p.o. SPC 60 g crude drug/kg, Mean, 5 rats, read-out: Tmax): 0.55 h
- Vd/F ([1]; rat, plasma, po, 0.124 mg/kg, statistical moment parameters, DAS 2.0, rats p.o. SPC 60 g crude drug/kg, Mean, 5 rats, read-out: Vz/F): 25.9 L/kg
- half-life ([1]; rat, plasma, po, 0.124 mg/kg, statistical moment parameters, DAS 2.0, rats p.o. SPC 60 g crude drug/kg, Mean, 5 rats, read-out: t1/2z (converted)): 2.9 h
- AUC(0-t) ([1]; rat, plasma, po, 2.62 mg/kg, rats, p.o. SPC 60 g crude drug/kg, doses of 1-4: 0.124, 0.22, 1.42, 2.62 mg/kg, n = 5, read-out: AUC0→t Val.): 19.1 ng·h/mL
- AUC(0-inf) ([1]; rat, plasma, po, 2.62 mg/kg, rats, p.o. SPC 60 g crude drug/kg, doses of 1-4: 0.124, 0.22, 1.42, 2.62 mg/kg, n = 5, read-out: AUC0→∞ Val.): 20 ng·h/mL
- Cmax ([1]; rat, plasma, po, 2.62 mg/kg, rats, p.o. SPC 60 g crude drug/kg, doses of 1-4: 0.124, 0.22, 1.42, 2.62 mg/kg, n = 5, read-out: Cmax Val.): 7.2 ng/mL
- Tmax ([1]; rat, plasma, po, rats, p.o. SPC 60 g crude drug/kg, doses of 1-4: 0.124, 0.22, 1.42, 2.62 mg/kg, n = 5, read-out: Tmax Val.): 0.55 h
- Cz [1, 5]: 0.202 µg/L
- VRT(0-t) [1, 5]: 7.148 h^2
- VRT(0-∞) [1, 5]: 16.239 h^2
- elimination rate constant [1, 5]: 0.247 h⁻¹
- AUMC(0-t) [1, 6]: 52.953
- AUMC(0-∞) [1, 6]: 68.893
- time of slight secondary absorption peak [3]: 6 h
SMILES: COc1cc(-c2coc3cc(O)ccc3c2=O)ccc1O [Constituent 1, 3′-methoxydadizein]
- Papp (Caco-2 cell monolayer): 2.2 ×10⁻⁶ cm/s
- AUC0→t Obs. [2]: 8.4 ng·h/mL
- AUC0→∞ Obs. [2]: 9 ng·h/mL
- Cmax Obs. [2]: 3.9 ng/mL
- Tmax Obs. [2]: 0.42 h
